Measured values published in PubChem BioAssay (NCI).
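The compound was tested at five concentrations on cells cultured in 96-well plates, with a 48-hour exposure period. TGI: total growth inhibition.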

What was measured:
Experiment in all cases: NCI tumour cell line growth inhibition, 48 h
DLD-1 colon = system: DLD-1 colon
KM20L2 colon = system: KM20L2 colon
RXF-631 renal = system: RXF-631 renal
DMS 273 small cell lung = system: DMS 273 small cell lung
HOP-18 NSCLC = system: HOP-18 NSCLC
XF 498 CNS = system: XF 498 CNS

**Q.** How did the TGI (DLD-1 colon) turn out when Nc1nc(=O)n(CC(O)CO)s1 (stereo unspecified) was run?
**A.** > 100 µM

**Q.** What about the TGI (KM20L2 colon) of the same molecule?
**A.** > 100 µM

**Q.** What about the TGI (RXF-631 renal) of the same molecule?
**A.** > 100 µM

**Q.** What about the TGI (DMS 273 small cell lung) of the same molecule?
**A.** > 100 µM

**Q.** And the TGI (HOP-18 NSCLC)?
**A.** > 100 µM

**Q.** For O=C(NNC(=O)c1nsc2ccccc12)c1ccc(Cl)cc1, which TGI (KM20L2 colon) is on record?
**A.** 53.8 µM

**Q.** What about the TGI (DMS 273 small cell lung) of the same molecule?
**A.** 25.1 µM

**Q.** And the TGI (HOP-18 NSCLC)?
**A.** 27.4 µM

**Q.** How did the TGI (DLD-1 colon) turn out when O=S(O)c1cc(Cl)cc(Cl)c1OCc1ccccc1 was run?
**A.** > 100 µM

**Q.** And the TGI (XF 498 CNS)?
**A.** > 100 µM

**Q.** And the TGI (RXF-631 renal)?
**A.** > 100 µM
